Test results reported in US20250376441A1, “NOVEL COMPOUND AND PHARMACEUTICAL COMPOSITION COMPRISING SAME AS ACTIVE INGREDIENT” (Industry-Academic Cooperation Foundation, Yonsei University, priority 2017, published 2025).
pEC50, pIC50: −log10 of the molar value.

What was measured:
[1] = target: AMP-activated protein kinase (AMPK); experiment: AMPK kinase assay (luminescence, purified enzyme, ATP, substrate peptide); type: biochemical; details: AMPK activation
Protocol: In order to identify an effect of the Preparation Example 6 having the highest docking score in Experimental Example 1 on activity of the AMP-activated protein kinase (AMPK), a kinase assay was performed. The kinase assay was performed as follows. […] Then, purified AMP-activated protein kinase and ATP were allowed to react on a substrate peptide for the AMP-activated protein kinase, and degrees of luminescence thereof were shown as EC50 in Table 3 and FIG. 3.

[2] = tested on: amyloid-beta peptide1-42 degenerative neurological disease-induced mice; experiment: Probe test (Morris water maze, platform removed); type: in vivo, ICR mice; details: 90 seconds without platform
Protocol: (§1) In order to induce a degenerative neurological disease, the experimental animals of Preparatory Example 1 were anesthetized by inhalation with 2.5% isoflurane. Then, 1 μg of amyloid-beta peptide1-42, a degenerative neurological disease-inducing substance, was administered to the animals at both hippocampal positions (AP: −2.3, L: ±2.0, H: −1.5) using a stereotaxic apparatus. […] For the administration, 1 μl was injected, at a flow rate of 0.2 μl/min, with a […] gas-tight glass syringe (Hamilton, Reno, NV, USA) using a perfusion pump (Pump 22, Harvard Apparatus, South Natick, MA, USA). Subsequently, the syringe was allowed to stand for 5 minutes and then removed.
(§2) Then, a degenerative neurological disease was induced as in Preparation Example 2.
A circular pool (diameter: 120 cm, height: 75 cm) was filled with water to a depth of 25±1 cm as in FIG. 4, and a 24 cm platform was prepared by hiding it 1 cm below the water surface. Space cues were installed on the four sides of the wall so that the aminals can identify locations, and skimmed milk powder was dissolved into water so that the animals cannot identify the platform with naked eyes. One day before the experiment, all the experimental animals were allowed to swim freely for 1 minute in a water bath having no platform, so that the animals can adapt to the swimming situation. After that, a test group was allowed to start, in any order, from two of the three quadrants except the quadrant where the platform was placed, and allowed to find the platform for 60 seconds. In a case where an animal finds the platform, the animal was allowed to stay thereon for 20 seconds. […] As soon as end of the position learning time, which is the 20-second staying time, the animal was allowed to start again from any quadrant, and the time and distance to reach the platform were measured. The procedure was performed four times a day, and all procedures were taken with a camera and analyzed with a video tracking system (Panlab, USA). Probe trials were made on the fifth day after the four-day experiment in toal was completed. The test group was allowed to swim freely for 90 seconds without the platform, thereby performing evaluation on whether the test group holds a memory of the platform location. The results are illustrated in FIGS. 5 to 7.
The results are illustrated in FIGS. 8 and 9.

[3] = tested on: amyloid-beta peptide1-42 degenerative neurological disease-induced mice; experiment: Passive avoidance response test; type: in vivo, ICR mice; details: p<0.05 vs beta-amyloid group
Protocol: as §1, §2
Under a situation where a chamber with a bright light and a dark chamber were connected to each other via a small passage, 4 hours before the experiment, the experimental animals were placed in the chamber with a bright light. The experimental animals instinctively enter the dark chamber. However, after 4 hours of fear learning carried out by using an electric shock to give aversive stimulus, in a case where the experimental animals are placed in the chamber with a bright light, the time until the experimental animals enter the dark chamber was measured and quantified. The results are illustrated in FIG. 10.

[4] = tested on: amyloid-beta peptide1-42 degenerative neurological disease-induced mice; experiment: Rotarod test; type: in vivo, ICR mice; details: p<0.05 vs beta-amyloid group
Protocol: as §1, §2
As an experiment for evaluating effects of the samples on decreased motor coordination ability and motor sensation associated with a degenerative neurological disease, a rotarod experiment which examines the overall motor function of the test groups was conducted. The experimental method was as follows. […] After 24 hours, the time to lose balance and fall off the rotating cylinder of the same condition was measured, and the result is illustrated in FIG. 11.

[5] = tested on: Tunel positive cells in brain tissue; experiment: Apoptosis level in brain tissue by TUNEL assay; type: in vivo, ICR mice
Protocol: Subsequently, the syringe was allowed to stand for 5 minutes and then removed.
Then, an apoptosis level was checked through TUNEL assay. The TUNEL assay is a method to search for cells that have undergone apoptosis by attaching a fluorescent substance to ends of DNA fragments cleaved due to apoptosis. The extracted brain tissue of the experimental animal is fixed by perfusion with 4% formaldehyde. Then, the brain tissue was embedded in paraffin and sectioned to a thickness of 5 μm. The brain tissue fixed on a slide was subjected to a TUNEL assay kit so that the end portions where DNA having undergone apoptosis had been fragmented are fluorescence-stained, and checked by a fluorescence microscope.

[6] = type: in vitro ADME; details: PAMPA
Excerpt: The results are illustrated in FIG. 17.

[7] = tested on: Salmonella typhimurium TA98; experiment: Ames reverse mutation test, TA98
Protocol: For each strain, treatment with a single concentration of 200 μg/plate was performed in triplicate and mutation was checked.

HFL-1 = experiment: Cytotoxicity test (Cyto X cell viability assay kit), HFL-1; type: cell-based; details: Homo sapiens, HFL1
Protocol: (§3) In order to identify whether the Preparation Example 6 according to the present invention is toxic to cells, a cytotoxicity test was conducted at the Korea Research Institute of Chemical Technology using the Cyto X™ cell viability assay kit ([…]).

L929 = experiment: Cytotoxicity test (Cyto X cell viability assay kit), L929; type: cell-based; details: Mus musculus
Protocol: as §3

NIH 3T3 = experiment: Cytotoxicity test (Cyto X cell viability assay kit), NIH 3T3; type: cell-based; details: Mus musculus, NIH3T3
Protocol: as §3

[8] = Lipophilicity (pKa, LogP); type: physicochemical; details: ACD/Labs T3 (pH-metrior)
Protocol: For a preliminary examination on clinical application of the Preparation Example 6, evaluation on lipophilicity and solubility was performed.

Half-life test = experiment: Half-life test
Excerpt: In order to identify whether the Preparation Example 6 according to the present invention can be orally administered, a half-life of the compound was checked. […] The results are illustrated in FIG. 18.

Structure (SMILES): COc1ccc(OC)c(/C=C/C(=O)c2ccc(NS(=O)(=O)c3ccc(Cl)cc3)cc2)c1 [Preparation Example 6, (E)-4-Chloro-N-(4-(3-(2,5-dimethoxyphenyl)acryloyl)phenyl)benzenesulfonamide]
- pEC50 [1]: 6.20
- swimming time in the target quadrant ([2]; 1 mg, p<0.05): 31.08 ± 6.33 s
- swimming time in the target quadrant ([2]; 10 mg, p<0.01): 36.73 ± 7.78 s
- swimming time in the target quadrant ([2]; 100 mg, p<0.01): 36.51 ± 6.55 s
- staying time in the chamber with a bright light ([3]; 10 mg): 156.87 ± 50.95 s
- staying time in the chamber with a bright light ([3]; 100 mg): 153.48 ± 34.71 s
- time to keep balance on the rotating cylinder ([4]; 10 mg): 48.62 ± 10.54 s
- time to keep balance on the rotating cylinder ([4]; 100 mg): 47.65 ± 8.13 s
- number of Tunel positive cells ([5]; 1 mg, p<0.05): 88.83±18.98
- number of Tunel positive cells ([5]; 10 mg, p<0.01): 69.5±17.87
- number of Tunel positive cells ([5]; 100 mg, p<0.01): 67.00±19.54
- degree of permeability [6]: medium value
- membrane permeability measured value [6]: −4.4±0.152
- Ames reverse mutation test outcome ([7]; TA98, 200 μg/plate, with or without S9): negative
- Reverse mutation [factor] with S-9 mix ([7]; TA98, with S-9, factor versus control): [1.5]
- Reverse mutation/dish (mean ± SD) with S-9 mix ([7]; TA98, with S-9, Preparation Example 6 at 200 μg/plate, Benzo(a)pyrene concentration 2): 35 ± 2
- Reverse mutation [factor] w/o S-9 mix ([7]; TA98, without S-9, factor versus control): [1.1]
- Reverse mutation/dish (mean ± SD) w/o S-9 mix ([7]; TA98, without S-9, Preparation Example 6 at 200 μg/plate, 2-Nitrofluorene concentration 2): 20 ± 4
- pIC50 (HFL-1): < 4.00
- pIC50 (L929): < 4.00
- pIC50 (NIH 3T3): < 4.00
- logP [8]: 4.75
- half-life (Half-life test): ≥ 3 h
